Source: US20250352615A1, “COMPOSITIONS AND METHODS FOR THE MODULATION OF PIEZO1 AND TRPV4” (Duke University, priority 2021, published 2025)

Assays:
pancreatic acini [1] = assay: Cell death assays of pancreatic acini (LDH release, Live/Dead, live-cell imaging); format: cell-based
Method: The viability of pancreatic acini with Yoda1 and CCK treatments was analyzed using the Live/Dead Cell Imaging Kit (Thermo Fisher Scientific, catalog R37601) or the LDH Release Assay Kit (Promega, catalog G1780).

pancreatic acini [2] = assay: Mitochondrial depolarization in pancreatic acini (TMRE); format: cell-based, mouse
Method: Live-cell mitochondrial depolarization was analyzed using the mitochondrial labeling dye, TMRE. Isolated acini were plated on a thin-layered, Matrigel-coated, glass-bottom culture plate with DMEM/F12 and 10% FBS media and placed in a CO2 incubator for 1 hr at 37° C. After 1 hr, the acini were incubated with TMRE (200 nM) in the bath buffer containing 140 mM NaCl, 4.7 mM KCl, 2.0 CaCl2, 1 mM MgCl2, 10 mM HEPES, and 10 mM glucose (pH adjusted to 7.4 with NaOH) for 30 minutes. The TMRE dye was washed and replaced with fresh bath buffer. The images were captured with a Zeiss Axio observer Z1 microscope with MetaMorph software (Molecular Devices) at intervals of 600 ms. TMRE was excited at 540-600 nm and emission collected at 585-675 nm. Carbonyl cyanide 4-(trifluoromethoxy) phenylhydrazone (FCCP), which uncouples the oxidative phosphorylation process and depolarizes mitochondria, was used as a positive control. A maximum of 2 mitochondrial puncta were taken per acinar cell.

pancreatic acini [3] = assay: Trypsinogen activation in pancreatic acini (BZiPAR); format: cell-based, mouse
Method: To visualize Piezo1-induced trypsinogen activation, acini were loaded with active trypsin enzyme substrate BZiPAR (10 μM). Na-HEPES buffer with 2 mM Ca^2+ was used during imaging. A Zeiss Axio observer Z1 with a high-sensitivity EMCCD camera with a ×40/0.75 EC-Plan-NeoFluar DIC objective was used to capture the Z-stack images with stack thickness of 3 μm at an interval of 12 seconds. The BZiPAR fluorescent wavelength Ex/Em was 498/521 nm. BZiPAR was excited at 470-510 nm and emission collected at 495-550 nm. The captured images were analyzed with MetaMorph software (Molecular Devices).

Piezo1 [4] = molecular target: T1, Piezo1 (Mus musculus, UniProt E2JF22); assay: Calcium imaging of Yoda1 (Piezo1)-mediated [Ca2+]i in pancreatic acini; format: cell-based; conditions: for effect on Yoda1-induced sustained [Ca2+]i elevation, YM26734 and AACOCF3 together: YM26734 10 μM + AACOCF3 30 μM, preincubated 10 minutes; for effect of protein kinase A and C blockers on Yoda1-induced sustained calcium elevation: KT5720 5 μM, GF109203X 20 μM
T1 construct: endogenous in cells; host or cells: freshly isolated mouse pancreatic acini (WT = Piezo1 fl/fl on a C57BL/6J background)
T1 sequence (E2JF22 whole entry): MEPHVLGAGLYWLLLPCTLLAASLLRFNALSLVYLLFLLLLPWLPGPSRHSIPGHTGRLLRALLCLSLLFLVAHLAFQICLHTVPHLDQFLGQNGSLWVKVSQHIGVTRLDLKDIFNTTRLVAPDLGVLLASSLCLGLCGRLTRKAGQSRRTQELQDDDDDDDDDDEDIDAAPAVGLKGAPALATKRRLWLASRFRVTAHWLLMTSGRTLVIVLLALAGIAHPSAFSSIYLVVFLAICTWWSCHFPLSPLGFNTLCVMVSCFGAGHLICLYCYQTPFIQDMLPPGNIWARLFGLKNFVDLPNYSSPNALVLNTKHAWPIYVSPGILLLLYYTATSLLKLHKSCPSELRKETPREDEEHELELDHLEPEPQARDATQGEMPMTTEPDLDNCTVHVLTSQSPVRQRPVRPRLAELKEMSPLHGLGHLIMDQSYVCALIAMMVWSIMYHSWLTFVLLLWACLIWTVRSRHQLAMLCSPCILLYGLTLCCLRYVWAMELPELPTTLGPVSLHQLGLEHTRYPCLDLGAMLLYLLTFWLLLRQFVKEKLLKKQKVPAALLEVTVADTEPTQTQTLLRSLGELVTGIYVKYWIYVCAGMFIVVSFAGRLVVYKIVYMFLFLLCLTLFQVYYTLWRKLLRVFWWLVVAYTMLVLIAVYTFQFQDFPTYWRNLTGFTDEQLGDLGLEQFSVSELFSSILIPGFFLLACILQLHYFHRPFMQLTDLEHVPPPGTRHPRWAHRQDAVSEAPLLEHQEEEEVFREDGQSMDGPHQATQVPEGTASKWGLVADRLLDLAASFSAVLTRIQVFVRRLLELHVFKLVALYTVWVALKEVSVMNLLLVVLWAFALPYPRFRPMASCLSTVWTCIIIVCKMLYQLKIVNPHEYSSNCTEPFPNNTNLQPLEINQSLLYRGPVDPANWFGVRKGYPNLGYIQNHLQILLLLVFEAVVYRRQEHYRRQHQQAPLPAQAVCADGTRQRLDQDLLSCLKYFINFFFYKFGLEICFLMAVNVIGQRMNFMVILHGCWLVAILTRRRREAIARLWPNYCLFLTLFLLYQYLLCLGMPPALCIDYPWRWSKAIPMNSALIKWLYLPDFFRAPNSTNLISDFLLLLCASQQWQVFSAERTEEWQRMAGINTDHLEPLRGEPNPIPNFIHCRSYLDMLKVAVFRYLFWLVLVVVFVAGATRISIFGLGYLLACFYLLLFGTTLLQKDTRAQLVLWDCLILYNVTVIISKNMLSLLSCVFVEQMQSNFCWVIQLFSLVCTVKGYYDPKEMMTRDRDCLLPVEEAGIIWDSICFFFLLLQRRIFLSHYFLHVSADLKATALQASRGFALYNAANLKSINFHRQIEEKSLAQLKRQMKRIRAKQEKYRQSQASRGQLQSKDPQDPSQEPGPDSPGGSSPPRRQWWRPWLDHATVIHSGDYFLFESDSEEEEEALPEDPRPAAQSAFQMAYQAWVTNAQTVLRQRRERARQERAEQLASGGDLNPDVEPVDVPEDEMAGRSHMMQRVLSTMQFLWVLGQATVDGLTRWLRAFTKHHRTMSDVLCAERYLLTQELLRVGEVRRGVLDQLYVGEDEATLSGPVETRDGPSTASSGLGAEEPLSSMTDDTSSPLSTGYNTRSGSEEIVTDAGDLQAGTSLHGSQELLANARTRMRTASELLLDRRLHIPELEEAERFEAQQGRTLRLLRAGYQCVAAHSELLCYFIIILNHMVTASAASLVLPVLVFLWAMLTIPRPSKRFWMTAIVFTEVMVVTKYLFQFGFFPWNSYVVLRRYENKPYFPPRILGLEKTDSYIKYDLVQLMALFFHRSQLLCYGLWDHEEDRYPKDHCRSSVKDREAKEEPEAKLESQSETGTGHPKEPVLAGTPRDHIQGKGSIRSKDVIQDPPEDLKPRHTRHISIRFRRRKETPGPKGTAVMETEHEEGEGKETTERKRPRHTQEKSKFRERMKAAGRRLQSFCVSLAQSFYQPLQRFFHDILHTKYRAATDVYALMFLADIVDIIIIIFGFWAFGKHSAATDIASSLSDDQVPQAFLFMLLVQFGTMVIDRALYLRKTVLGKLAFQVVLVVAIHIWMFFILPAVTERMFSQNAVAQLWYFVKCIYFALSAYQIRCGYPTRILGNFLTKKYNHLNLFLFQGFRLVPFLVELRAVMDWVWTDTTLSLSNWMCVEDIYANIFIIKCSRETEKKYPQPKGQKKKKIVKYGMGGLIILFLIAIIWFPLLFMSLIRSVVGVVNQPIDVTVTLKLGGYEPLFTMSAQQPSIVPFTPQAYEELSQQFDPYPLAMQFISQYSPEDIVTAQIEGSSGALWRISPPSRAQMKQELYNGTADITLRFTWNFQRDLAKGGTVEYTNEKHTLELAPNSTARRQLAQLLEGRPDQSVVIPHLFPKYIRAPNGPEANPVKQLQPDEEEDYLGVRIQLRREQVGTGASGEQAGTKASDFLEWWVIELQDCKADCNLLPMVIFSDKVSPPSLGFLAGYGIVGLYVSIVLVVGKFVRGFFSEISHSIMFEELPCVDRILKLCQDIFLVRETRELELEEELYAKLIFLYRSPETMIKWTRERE
Method: (§1) Mouse pancreatic acini were isolated using a standard collagenase digestion protocol. Isolated acini were plated on a thin-layered, Matrigel-coated, glass-bottom, culture plate (MatTek, P35G-0-14-C). Freshly isolated acini were used in each experiment.
(§2) Calcium imaging in pancreatic acini was performed as previously described. The chemicals used in calcium imaging experiments included the following: Yoda1 (Tocris; 5586), GsMTx4 (Abcam; ab141871), 5′,6′-EET (Santa Cruz Biotechnology; sc-221066), AA (Millipore Sigma; A3611), HC067047 (Tocris; 4100), GSK1016790A (Millipore Sigma; G0798), RN1734 (Tocris; 3746), AACOCF3 (Tocris; 1462), YM26734 (Tocris; 2522), GF109203X (Tocris; 0741), and CCK8 (Sigma-Aldrich).

pancreatic acini [5] = assay: CCK-induced [Ca2+]i in pancreatic acini; format: cell-based, mouse; parameters: effect on CCK-induced sustained [Ca2+]i elevation: dose or concentration left out as unconfirmed
Method: as §1, §2

Piezo1 [6] = molecular target: T1, Piezo1; assay: Calcium imaging of Piezo1-mediated [Ca2+]i in mouse PSCs; format: cell-based; conditions: for effect on Yoda1-mediated sustained [Ca2+]i elevation, YM26734 and AACOCF3 together: YM26734 10 μM + AACOCF3 30 μM, Yoda1 25 μM, PSCs from WT mice
Method: Mouse and human PSCs were isolated using collagenase digestion. Modified Krebs Henseleit Buffer (KHB) solution (100 mL) was prepared as previously described by Romac et al., Nat. Commun. 9(1):1715 (2018). Pancreatic tissue was digested with 2 mg of collagenase NB 8 (SERVA, catalog 17456) dissolved in 10 mL of modified KHB solution containing 1 mg soybean trypsin inhibitor (SBTI 1-S; Millipore Sigma, catalog T9003) and 20 mg BSA (Thermo Fisher Scientific; BP1600-100). Digestion solution (5 mL) was used to inflate the pancreas. Pancreas with 5 mL of digestion solution was incubated in a shaking water bath for 10 minutes at 37° C. The solution was then discarded. The pancreas tissue was cut into small pieces and digested with fresh 5 mL digestion buffer. Tissue was incubated in a shaking water bath for 40 minutes at 37° C. The cells were then separated from tissue by pipetting up-down with a 10 mL pipette and passed sequentially through a 70 μm and a 40 μm cell strainer. The filtrate was centrifuged at 150×g for 3 minutes at room temperature. The cells were washed with 10 mL Leibovitz's media (Thermo Fisher Scientific, catalog 11415-064), passed through a 20 μm filter, and centrifuged at 80×g for 3 minutes at room temperature. The supernate was removed, and isolated stellate cells were plated on a thin-layered Matrigel-coated glass bottom culture plate (MatTek, P35G-0-14-C). Before plating the cells, Matrigel solution (Corning, catalog 354234) at a ratio of 1.5:100 DMEM/F12 (Thermo Fisher Scientific, catalog 11330-032) was poured onto the culture plate and incubated for 2 hr at 37° C. to form a thin layer of Matrigel coating. Matrigel mixture was removed, and the plate was washed with PBS before cells were plated. Cell culture media, DMEM/F12 with 5% FBS was used for mouse stellate cells. Fresh, human pancreatic tissue was digested with collagenase as described above with modifications. Collagenase (2.5 mg) in 10 mL of modified KHB solution was used for digestion. The digested tissues were filtered through a 100 μm cell strainer. The cells were cultured with DMEM/F12 with 10% FBS in a Matrigel-coated plate. After 24 hr, the cell media was replaced with fresh media to remove unattached and dead cells. After 2 days, cells were immunostained for GFAP and used for experiments. Perinuclear fat droplets were stained with BODIPY 493/503 (4,4-Difluoro-1,3,5,7,8-Pentamethyl-4-Bora-3a,4a-Diaza-s-Indacene; Invitrogen, catalog D3922) to confirm stellate cell quiescence. The cell viability following Yoda1 treatment was analyzed using the Live/Dead cell imaging kit (Thermo Fisher Scientific, catalog R37601). RNAs were isolated using the RiboPure Kit (Invitrogen, catalog AM1924) according to manufacturer's instructions.
Fluid shear stress and mechanical pushing applied to stellate cells were achieved as previously described by Wang et al., J. Clin. Invest. 126(12): 4527-4536 (2016). Parallel-plate fluid flow chambers (μ-Slide I 0.4 Luer, or μ-Slide I 0.2 Luer from Ibidi) were used for fluid shear stress experiments. The fluid shear stress (T) was calculated using the formula: τ=η×[…] φ for μ-Slide I 0.4 Luer and τ=η×330.4 φ for μ-Slide I 0.2 Luer, where r represents viscosity of the medium and φ represents flow rate (according to the manufacturer's instructions, Ibidi). Mechanical pushing was achieved by applying a blunt borosilicate glass pipette once to the cell membrane with a deflection of 2-3 μm for 1 second using a micromanipulator (World Precision Instruments).
Calcium 6-QF (Molecular Devices) dye was used for live-cell calcium imaging as described by Romac et al., Nat. Commun. 9(1):1715 (2018). Cells were imaged in HBSS buffer with 2 mM Ca^2+. Faintly and highly fluorescent loaded cells were excluded from analysis. […]

TRPV4 = molecular target: T2, TRPV4 (Mus musculus, UniProt Q9EPK8); assay: Calcium imaging of TRPV4-mediated [Ca2+]i in pancreatic acini (agonists, shear stress, Yoda1 sustained phase); format: cell-based; conditions: for agonist effect on [Ca2+]i: GSK101 50 nM, arachidonic acid 20 μM, 5′,6′-EET 5 μM
T2 construct: endogenous in cells; host or cells: freshly isolated mouse pancreatic acini (C57BL/6J WT)
T2 sequence (Q9EPK8 whole entry): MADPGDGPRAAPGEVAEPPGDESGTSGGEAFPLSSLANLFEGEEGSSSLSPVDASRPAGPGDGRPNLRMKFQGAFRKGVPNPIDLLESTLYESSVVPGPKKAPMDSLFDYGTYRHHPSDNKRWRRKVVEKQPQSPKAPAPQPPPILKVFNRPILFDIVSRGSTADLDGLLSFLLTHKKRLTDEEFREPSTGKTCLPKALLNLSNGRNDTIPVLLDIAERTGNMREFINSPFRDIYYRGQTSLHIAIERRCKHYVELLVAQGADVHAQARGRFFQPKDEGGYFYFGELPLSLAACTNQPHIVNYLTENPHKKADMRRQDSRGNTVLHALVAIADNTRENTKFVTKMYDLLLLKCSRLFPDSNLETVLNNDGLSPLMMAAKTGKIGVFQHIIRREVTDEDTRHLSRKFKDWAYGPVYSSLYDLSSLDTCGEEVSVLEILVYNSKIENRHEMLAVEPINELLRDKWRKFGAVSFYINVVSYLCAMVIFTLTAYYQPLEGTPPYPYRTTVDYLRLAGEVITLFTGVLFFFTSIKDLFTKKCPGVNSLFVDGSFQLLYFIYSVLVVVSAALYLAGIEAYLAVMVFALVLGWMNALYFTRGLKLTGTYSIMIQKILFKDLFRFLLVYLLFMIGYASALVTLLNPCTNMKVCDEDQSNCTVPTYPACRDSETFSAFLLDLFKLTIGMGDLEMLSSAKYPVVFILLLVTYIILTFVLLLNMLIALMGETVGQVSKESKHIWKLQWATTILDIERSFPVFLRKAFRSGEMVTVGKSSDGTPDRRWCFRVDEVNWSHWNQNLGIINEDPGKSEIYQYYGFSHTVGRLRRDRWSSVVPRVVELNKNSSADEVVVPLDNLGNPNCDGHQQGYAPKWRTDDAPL
Method: as §1
Parallel-plate fluid flow chambers (μ-Slide I 0.4 Luer, and μ-Slide I 0.2 Luer from Ibidi GmbH) were used to measure the shear stress-induced changes in intracellular calcium, mitochondrial depolarization, and trypsin activation. The constant flow rate with shear stress (T) was determined as follows: τ=η×[…] φ for μ-Slide I 0.4 Luer and τ=η×330.4 φ for μ-Slide I 0.2 Luer, where η=viscosity of the medium and φ=flow rate (according to the manufacturer's instructions, Ibidi).
as §2

## CCK: secretagogue that stimulates pancreatic enzyme secretion by increasing [Ca2+]i
Pancreatic acini [1]; CCK 1 nM
  cell damage (LDH release) in WT vs Piezo1aci-KO acini: produced comparable cell damage
Pancreatic acini [1]; Yoda1 50 μM + CCK 1 nM, WT acini
  acinar cell death, both Yoda1 and CCK vs individual application: acinar cell death was greater
Pancreatic acini [2]; Yoda1 50 μM, CCK 10 nM
  time to mitochondrial depolarization after application: > 10 min
Pancreatic acini [3]; CCK 10 nM
  CCK-mediated trypsin activation, WT vs Piezo1aci-KO acini: similar
Pancreatic acini [3]; Yoda1 50 μM or CCK 10 nM
  trypsin activation (BZiPAR fluorescence): activated trypsin in pancreatic acini over time
Pancreatic acini [3]; Yoda1 50 μM, CCK 10 nM
  time to trypsin activation after application: > 20 min

## Cc1cccc(F)c1C(=O)Nc1cnc(-c2cc3c(cc2Cl)OC(F)(F)O3)cn1 [CM4620]
Piezo1 [4]; CM4620 5 μM preincubated 1 hr, Yoda1 25 μM
  effect on Yoda1-induced [Ca2+]i rise: did not alter the rise in [Ca^2+]i following Yoda1 stimulation
Pancreatic acini [5]; CM4620 preincubated 1 hr, CCK
  effect on CCK-induced sustained [Ca2+]i elevation: blocked the sustained elevation in [Ca^2+]i produced by CCK
Pancreatic acini [5]; CM4620 preincubated 1 hr, either concentration of CCK, residual calcium wave
  completeness of block of CCK-induced [Ca2+]i rise: did not completely block the [Ca^2+]i rise

## CCCCCCCCCCCC(=O)c1c(O)c(C(=O)CCCCCCCCCCC)c(O)c(C2CC(c3ccc(O)cc3)Oc3cc(O)ccc32)c1O (stereo not drawn) [YM26734]
Piezo1 [4]; Yoda1 25 μM
  effect on Yoda1-induced sustained [Ca2+]i elevation, YM26734 and AACOCF3 together: blocked the Yoda1-induced sustained [Ca^2+]i elevation
Piezo1 [4]; YM26734 10 μM, Yoda1 25 μM
  effect of the secretory PLA2 inhibitor alone on Yoda1-induced sustained [Ca2+]i elevation: substantial and capable of blocking the sustained [Ca^2+]i elevation
Piezo1 [6]
  effect on Yoda1-mediated sustained [Ca2+]i elevation, YM26734 and AACOCF3 together: significantly inhibited the Yoda1-mediated sustained elevation in [Ca^2+]i

## CCCCC/C=C\C/C=C\C/C=C\C/C=C\CCCC(=O)C(F)(F)F [AACOCF3]
Piezo1 [4]; Yoda1 25 μM
  effect on Yoda1-induced sustained [Ca2+]i elevation, YM26734 and AACOCF3 together: blocked the Yoda1-induced sustained [Ca^2+]i elevation
Piezo1 [6]
  effect on Yoda1-mediated sustained [Ca2+]i elevation, YM26734 and AACOCF3 together: significantly inhibited the Yoda1-mediated sustained elevation in [Ca^2+]i

## CCCCC/C=C\C/C=C\C/C=C\CC1OC1CCCC(=O)O (stereo not drawn) [5′,6′-EET, 5′,6′-epoxyeicosatrienoic acid]
TRPV4
  agonist effect on [Ca2+]i: induced significant increases in [Ca^2+]i

## CC(=O)OCOC(=O)CN(CC(=O)OCOC(C)=O)c1ccccc1OCCOc1ccccc1N(CC(=O)OCOC(C)=O)CC(=O)OCOC(C)=O [BAPTA-AM]
Piezo1 [4]; BAPTA-AM 20 μM preincubated 30 minutes, Yoda1 50 μM
  effect on Yoda1-induced sustained Ca2+ rise: abolished the sustained Ca^2+ rise
Pancreatic acini [5]; BAPTA-AM 20 μM preincubated 30 minutes, CCK 1 nM
  effect on CCK-induced [Ca2+]i: completely eliminated the effect of CCK on [Ca^2+]i
Pancreatic acini [1]; BAPTA-AM preincubated 30 minutes, Yoda1 50 μM
  effect on Yoda1-induced LDH release: protected pancreatic acini from Yoda1-induced LDH release
Pancreatic acini [2]; BAPTA-AM 20 μM preincubated 20 minutes
  effect on Yoda1-induced mitochondrial depolarization: protected from Yoda1-induced mitochondrial depolarization

## CCCCC/C=C\C/C=C\C/C=C\C/C=C\CCCC(=O)O [AA, arachidonic acid]
TRPV4
  agonist effect on [Ca2+]i: induced significant increases in [Ca^2+]i

## C[C@H](CCC(=O)O)C[C@H](C)C[C@H](C)C(=O)/C=C(\O)[C@H](C)C[C@H](C)C/C=C/[C@@H](C)[C@@H](O)[C@@H](C)[C@@H](O)C[C@@H]1CC[C@@](C)([C@H]2CC[C@@](C)([C@@H](C)O)O2)O1 [ionomycin]
Piezo1 [6]; ionomycin 1 μM, mouse PSCs
  [Ca2+]i response to ionomycin after Yoda1 (25 μM) treatment: All cells responded

## CCCCCCOC(=O)[C@]1(O)C[C@@H]2O[C@@]1(C)n1c3ccccc3c3c4c(c5c6ccccc6n2c5c31)C(=O)NC4 [KT5720]
Piezo1 [4]
  effect of protein kinase A and C blockers on Yoda1-induced sustained calcium elevation: did not significantly affect the Yoda1-induced sustained calcium elevation

## CC(C)NCCN(C(C)C)S(=O)(=O)c1ccc(Cl)cc1Cl [RN1734]
TRPV4; HC067 100 nM, RN1734 30 μM
  effect on GSK101 (50 nM)-induced [Ca2+]i increase: inhibited

## CN(C)CCCn1cc(C2=C(c3c[nH]c4ccccc34)C(=O)NC2=O)c2ccccc21 [GF109203X]
Piezo1 [4]
  effect of protein kinase A and C blockers on Yoda1-induced sustained calcium elevation: did not significantly affect the Yoda1-induced sustained calcium elevation
